This note sets out measurements from ChEMBL document CHEMBL1828521, “New azole antifungal agents with novel modes of action: synthesis and biological studies of new tridentate ligands based on pyrazole and triazole” (2011).

For assay [1], the system named is Saccharomyces cerevisiae. As to the kind of experiment: Antifungal activity against Saccharomyces cerevisiae BY4741 assessed as reduction in cell growth at 1 mM. In kind it is functional, organism-based.
In assay [2] the test system is Saccharomyces cerevisiae. As to the kind of experiment: Antifungal activity against PKC1-deficient Saccharomyces cerevisiae BY4741 by Haploinsufficiency-profiling assay. In kind it is functional, organism-based.
Assay [3] concerns Saccharomyces cerevisiae. As to the kind of experiment: Antifungal activity against Saccharomyces cerevisiae BY4741 expressing Rad52-GFP assessed as appearance of Rad52 foci by epifluorescence microscopy. The assay is classed as functional, organism-based.
The subject of assay [4] is Saccharomyces cerevisiae. As to the kind of experiment: Antifungal activity against wild-type Saccharomyces cerevisiae BY4741 at 1.14 mM after 3 days by serial dilution method. In kind it is functional, organism-based.
Assay [5] relates to Saccharomyces cerevisiae. As to the kind of experiment: Antifungal activity against top3-deficient Saccharomyces cerevisiae BY4741 at 0.85 to 1.14 mM after 3 days by serial dilution method. The assay is classed as functional, organism-based.
For assay [6], the system named is Saccharomyces cerevisiae. As to the kind of experiment: Induction of cell cycle arrest at G1-phase in Saccharomyces cerevisiae BY4741 assessed as accumulation of 1C DNA content at 1 mM after 180 mins by flow cytometric analysis. The assay is classed as functional, organism-based. A general note: Flow cytometry measures light scatter and fluorescence of single cells or particles in a stream.

Assay [7] relates to Saccharomyces cerevisiae. As to the kind of experiment: Antifungal activity against Saccharomyces cerevisiae BY4741 expressing Rad52-GFP assessed as increase in appearance of Rad52 foci in S-phase by epifluorescence microscopy. The assay is classed as functional, organism-based.
In assay [8] the test system is Saccharomyces cerevisiae. As to the kind of experiment: Antifungal activity against xrs2-deficient Saccharomyces cerevisiae BY4741 at 0.85 to 1.14 mM after 3 days by serial dilution method. The assay is classed as functional, organism-based.
Assay [9] has as its system Saccharomyces cerevisiae. As to the kind of experiment: Induction of cell cycle arrest at G1-phase in Saccharomyces cerevisiae BY4741 at 1 mM after 180 mins by flow cytometric analysis. In kind it is functional, organism-based.
The subject of assay [10] is Saccharomyces cerevisiae. As to the kind of experiment: Antifungal activity against ski2-deficient Saccharomyces cerevisiae BY4741 at 0.85 to 1.14 mM after 3 days by serial dilution method. The assay is classed as functional, organism-based.
Assay [11] relates to Saccharomyces cerevisiae. As to the kind of experiment: Antifungal activity against Saccharomyces cerevisiae BY4741 assessed as inhibition of replication at 1 mM. In kind it is functional, organism-based.
The test system of assay [12] is Saccharomyces cerevisiae. As to the kind of experiment: Antifungal activity against Saccharomyces cerevisiae BY4741 expressing Rad52-GFP assessed as increase in appearance of Rad52 foci in G1 phase by epifluorescence microscopy. The assay is classed as functional, organism-based.
In assay [13] the test system is Saccharomyces cerevisiae. As to the kind of experiment: Antifungal activity against Saccharomyces cerevisiae BY4741 expressing Rad52-GFP assessed as increase in appearance of Rad52 foci in G2/M phase by epifluorescence microscopy. The assay is classed as functional, organism-based.
For assay [14], the system named is Saccharomyces cerevisiae. As to the kind of experiment: Cell cycle arrest at G1-phase in Saccharomyces cerevisiae BY4741 assessed as accumulation of […] DNA content at 290 uM after 180 mins by flow cytometric analysis. In kind it is functional, organism-based.
Assay [15] relates to Saccharomyces cerevisiae. As to the kind of experiment: Antifungal activity against top3-deficient Saccharomyces cerevisiae BY4741 at 1 to 1.4 mM after 3 days by serial dilution method. The assay is classed as functional, organism-based.
Assay [16] concerns Saccharomyces cerevisiae. As to the kind of experiment: Antifungal activity against Saccharomyces cerevisiae BY4741 assessed as increase in unbudded cells at 1 mM (reference value: 38.5%). In kind it is functional.
For assay [17], the system named is Saccharomyces cerevisiae. As to the kind of experiment: Antifungal activity against ski2-deficient Saccharomyces cerevisiae BY4741 at 1 to 1.4 mM after 3 days by serial dilution method. In kind it is functional, organism-based.
Assay [18] relates to Saccharomyces cerevisiae. As to the kind of experiment: Antifungal activity against Saccharomyces cerevisiae BY4741 assessed as small budded cells at 1 mM (reference value: 22%). In kind it is functional.
Assay [19] deals with Saccharomyces cerevisiae. As to the kind of experiment: Antifungal activity against xrs2-deficient Saccharomyces cerevisiae BY4741 at 1 to 1.4 mM after 3 days by serial dilution method. In kind it is functional, organism-based.
The test system of assay [20] is Saccharomyces cerevisiae. As to the kind of experiment: Cell cycle arrest in Saccharomyces cerevisiae BY4741 assessed as accumulation of cells with […] DNA content at G1 phase at 290 uM for 8 hrs by flow cytometric analysis. The assay is classed as functional, organism-based.
Assay [21] relates to Saccharomyces cerevisiae. As to the kind of experiment: Antifungal activity against wild-type Saccharomyces cerevisiae BY4741 at 1.4 mM by serial dilution method. The assay is classed as functional, organism-based.
Assay [22] concerns Saccharomyces cerevisiae. As to the kind of experiment: Antifungal activity against Saccharomyces cerevisiae BY4741 assessed as large budded cells at 1 mM (reference value: 39.4%). In kind it is functional.

The source made the active and inactive calls. The calls are words filed in the database; no cut-off is given here.

Take `CCN(CC)CCCN(Cn1cncn1)Cn1cncn1`: the result in the assay with Saccharomyces cerevisiae [1], with Saccharomyces cerevisiae [2], with Saccharomyces cerevisiae [3], in the assay with Saccharomyces cerevisiae [5], with Saccharomyces cerevisiae [6] and with Saccharomyces cerevisiae [7] was Active. For the same molecule, the outcome in the assay with Saccharomyces cerevisiae [8], in the assay with Saccharomyces cerevisiae [9], in the assay on Saccharomyces cerevisiae [10], with Saccharomyces cerevisiae [11], with Saccharomyces cerevisiae [12] and in the assay with Saccharomyces cerevisiae [13] was Active. The result in the assay with Saccharomyces cerevisiae [4] was inactive.
`Cc1cc(C)[nH]n1`: the outcome with Saccharomyces cerevisiae [1] was inactive.
`CCN(CC)CCCN(Cn1nc(C)cc1C)Cn1nc(C)cc1C`: the result in the assay on Saccharomyces cerevisiae [1], in the assay on Saccharomyces cerevisiae [3], with Saccharomyces cerevisiae [14], with Saccharomyces cerevisiae [15], in the assay with Saccharomyces cerevisiae [17] and with Saccharomyces cerevisiae [7] was Active. The result in the assay with Saccharomyces cerevisiae [19], in the assay with Saccharomyces cerevisiae [20], in the assay on Saccharomyces cerevisiae [12] and with Saccharomyces cerevisiae [13] was Active. Also, the values for the Activity with Saccharomyces cerevisiae [16], in the assay with Saccharomyces cerevisiae [18] and in the assay with Saccharomyces cerevisiae [22] were 51.5%, 9.7% and 38.7%, respectively. The result in the assay with Saccharomyces cerevisiae [21] was inactive.
On to `Cc1cc(C)n(CO)n1`, for which, in the assay on Saccharomyces cerevisiae [1], the result was Active.
